Test results taken from patent US9051351B2, “Hepatocyte growth factor mimics as therapeutic agents” (Washington State University, priority 2011, dated 2015).
“Also recorded” adds a separate entry of the source. Where a SMILES comes first, the peptide text is derived from it. [ ]: non-standard residue; d: D form. The star is where a group is joined. Hexanoyl = CCCCCC(=O)*; Ahx = NCCCCCC(=O)O

Assays:
aged rats = assay: Morris water maze, aged rat model; assay type: in vivo; conditions: aged rats of mixed sex, Dihexa oral 2 mg/kg/day, 8 days
Experimental: Swim speed was determined from these values.
The aged rat study employed 24 month old rats of mixed sex. […] The guide was then sealed with a thick stainless steel wire.

hippocampal neurons = assay: Immunocytochemistry: percent correlation of spines to synaptic markers; assay type: cell-based, rat; conditions: 10^−12 M, 5 days
Experimental: (§1) Transfected neurons were treated, fixed and stained. Briefly, cells were permeablized with 0.1% Triton X-100 detergent (Bio-Rad; Hercules, Calif.) for 10 minutes. An 8% bovine serum albumin (Intergen Company; Burlington, Mass.) in PBS was used to prevent non-specific binding for one hour at R.T.; Primary antibody incubations were at a 1:2500 dilution (see below) in 1% BSA in PBS at 4° C. overnight. Secondary antibody, 1:3000 Alexafluor 488 goat-anti-mouse (Invitrogen: Carlsbad, Calif.) was applied for two hours at room temperature. Coverslips were mounted with ProLong Gold anti-fade reagent (Invitrogen; Carlsbad, Calif.) and all washes were done with PBS. Imaging and analysis were performed as described above. For presynaptic excitatory transmission the VGLUT1 (Synaptic Systems, Goettingen, Germany) marker (Balschun, Moechars et al.) was employed and for general presynaptic transmission synapsin1 (Synaptic Systems, Goettingen, Germany) (Ferreira and Rapoport 2002) was applied. A postsynaptic function was established by PSD-95 (Milipore, Billerica, Mass.) (El-Husseini, Schnell et al. 2000). In each instance the total number of spines was counted for the treatment groups, control, Nle1-AngIV and Dihexa, to ensure an active phenotype. The total number of actin enriched spines adjacent to VGLUT1 or Synapsin were counted and converted to a percentage as the percent correlation of treatment-induced spines to presynaptic markers is a strong indicator of ability to transmit excitatory signals.
as §1, with “fixed and stained as previously described in Chapter two. Briefly, cells” for “fixed and stained. Briefly, cells”, “enriched spines (red) adjacent to” for “enriched spines adjacent to”
Transfected neurons were treated and fixed as described above. Following fixation, cells were rinsed in PBS and permeabilized with 0.1% Triton® X-100 detergent (Bin-Rad; Hercules, Calif.), followed by two rinses in PBS and blocked with 8% bovine serum albumin (Intergen Company; Burlington, Mass.) in PBS for 1 h. […]

6-OHDA lesioned rats = assay: 6-OHDA lesioned rat: rope hang, gait analysis, histology; assay type: in vivo
Experimental: Three groups of rats (8 animals per group) were utilized. The first two groups were prepared with unilateral 6-OHDA lesions and members of the first group was treated with MM-201 in DMSO 100 μl:PBS 8 ml ([…]) Members of Group 2 were treated with sterile DMSO 100 μl:PBS 8 ml equivalent volumes to the weights. Members of Group 3 had only a sham surgery and served as the non-treated controls. These three groups of animals were tested on behavioral tasks the day prior to surgery and on 13 days following surgery. The tasks included rope hang, and gait analysis.
The rope hang test involved the placement of the forepaws on a hemp rope (1.0 cm in dia.) located 1 m above a basket of towels. Hang time was recorded beginning when the experimenter let go of the animal. This test was repeated 3 times/animal/test (5 minutes rest between each test) every other day.
Step gait analyses were conducted in a dark room painted black under red light. The bottoms of each rat's feet were painted with black ink (Parker Quink) and the rat was placed in a Plexiglas straight maze (length×width×height: 116×7.6×10 cm). The maze was slightly elevated at one end such that the animal's tendency was to walk up hill. White paper strips placed on the floor of the maze were used to collect the gait patterns. These ink tracks were analyzed for stride length (distance between the mid point of the fore paw and hind paw comparing left and right strides).

## CCCCCC(=O)N[C@@H](Cc1ccc(O)cc1)C(=O)N[C@H](C(=O)NCCCCCC(N)=O)[C@@H](C)CC [Dihexa, N-hexanoic-Tyr-Ile-(6)-aminohexanoic amide] (Hexanoyl-Tyr-Ile-[Ahx]-NH2)
Aged rats
  latency to find the pedestal in the water maze: preformed significantly better in the water maze than untreated rats; also recorded: performed significantly better than untreated controls
Aged rats; listed as dihexa
  latency to find the pedestal in the water maze: significantly improved performance; also recorded: significantly different than that of the non-treated rats
Hippocampal neurons
  percent correlation of treatment-induced spines to VGLUT1, Synapsin or PSD-95 vs control: did not differ from control treated neurons in the percent correlation
Hippocampal neurons; PSD-95 study
  Number of spines/50 μm: 43 spines/50 μm
Hippocampal neurons; Synapsin study
  Number of spines/50 μm: 37 spines/50 μm
Hippocampal neurons; VGLUT1 study
  Number of spines/50 μm: 44 spines/50 μm
6-OHDA lesioned rats; 0.5 mg/kg ip, started 2 weeks after 6-OHDA lesion
  performance in the rope hang test: completely restores performance in the rope hang test; also recorded: completely restored the performance
6-OHDA lesioned rats; 2 mg/kg by oral gavage/48 hrs
  motor deficits in the 6-OHDA rat: reverses motor deficits
6-OHDA lesioned rats; 6-OHDA lesioned rats
  gait analysis: confirmed the recovery of normal motor function
6-OHDA lesioned rats; 96 day studies
  overt toxicity: no overt toxicity was noted
6-OHDA lesioned rats; six weeks of ip Dihexa treatment
  tyrosine hydroxylase (TH) staining in the substantia nigra: dramatic restoration of tyrosine hydroxylase (TH) staining
6-OHDA lesioned rats; three months of Dihexa treatment
  recovery of SN TH staining: ~100%
